Reference: patent US20220117972A1, “USE OF PPAR-DELTA AGONISTS IN THE TREATMENT OF MITOCHONDRIAL MYOPATHY” (Reneo Pharmaceuticals, Inc., priority 2019, published 2022)
Positions count from the first letter of the chain named. “Also recorded” adds a separate entry of the source.

How the values were obtained:
PPARγ = molecular target: T1, PPARγ (Mus musculus, UniProt P37238); test: PPAR receptor transactivation assay, mouse PPARγ; assay type: cell-based
T1 construct: expressed in transfected cells; host or cells: Jump-In GripTite HEK293
T1 sequence (P37238 238-503 limits assumed): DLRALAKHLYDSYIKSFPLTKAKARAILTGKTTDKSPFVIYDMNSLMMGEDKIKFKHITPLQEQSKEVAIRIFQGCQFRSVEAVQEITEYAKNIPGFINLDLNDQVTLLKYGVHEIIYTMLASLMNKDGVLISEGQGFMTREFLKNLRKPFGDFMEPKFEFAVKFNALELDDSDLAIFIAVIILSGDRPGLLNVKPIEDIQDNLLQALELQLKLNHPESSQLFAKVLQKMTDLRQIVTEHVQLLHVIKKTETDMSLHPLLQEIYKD

rat muscle cell lines = test: fatty acid oxidation in rat muscle cell line; assay type: cell-based; conditions: in vitro
[1] = test system: human retinoid X receptor (hRXR); test: human retinoid X receptor activity; assay type: cell-based
LXRβ = molecular target: T2, LXRβ (Homo sapiens, UniProt P55055); test: nuclear receptor LXRβ activity; assay type: cell-based
T2 sequence (P55055 1-460): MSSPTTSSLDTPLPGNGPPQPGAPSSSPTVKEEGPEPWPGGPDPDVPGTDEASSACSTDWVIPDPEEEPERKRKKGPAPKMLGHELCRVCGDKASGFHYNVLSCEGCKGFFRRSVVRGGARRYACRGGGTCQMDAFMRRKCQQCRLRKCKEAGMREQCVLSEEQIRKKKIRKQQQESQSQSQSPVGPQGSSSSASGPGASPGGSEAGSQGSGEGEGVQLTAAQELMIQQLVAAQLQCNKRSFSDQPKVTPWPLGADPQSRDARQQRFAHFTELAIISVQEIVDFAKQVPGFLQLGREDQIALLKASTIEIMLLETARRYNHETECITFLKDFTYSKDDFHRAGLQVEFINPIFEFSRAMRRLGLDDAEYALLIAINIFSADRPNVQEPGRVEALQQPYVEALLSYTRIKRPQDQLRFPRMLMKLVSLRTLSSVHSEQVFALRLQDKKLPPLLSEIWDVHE

LXRα = molecular target: T3, LXRα (Homo sapiens, UniProt Q13133); test: nuclear receptor LXRα activity; assay type: cell-based
T3 sequence (Q13133 1-447): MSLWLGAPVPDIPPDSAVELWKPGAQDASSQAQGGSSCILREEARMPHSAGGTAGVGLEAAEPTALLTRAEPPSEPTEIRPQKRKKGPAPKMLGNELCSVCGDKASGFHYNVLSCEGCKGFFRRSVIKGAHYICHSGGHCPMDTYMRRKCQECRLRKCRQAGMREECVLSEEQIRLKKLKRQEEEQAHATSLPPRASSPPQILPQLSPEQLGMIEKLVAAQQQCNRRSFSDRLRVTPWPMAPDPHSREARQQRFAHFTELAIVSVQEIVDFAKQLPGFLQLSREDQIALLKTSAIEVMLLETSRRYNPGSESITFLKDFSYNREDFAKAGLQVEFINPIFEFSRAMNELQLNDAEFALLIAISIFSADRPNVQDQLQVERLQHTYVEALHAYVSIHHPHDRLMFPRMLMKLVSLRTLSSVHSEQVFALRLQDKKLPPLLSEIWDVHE

PPARα = molecular target: T4, PPARα (Mus musculus, UniProt P23204); test: PPAR receptor transactivation assay, mouse PPARα; assay type: cell-based
T4 construct: expressed in transfected cells; host or cells: Jump-In GripTite HEK293
T4 sequence (P23204 239-466 limits assumed): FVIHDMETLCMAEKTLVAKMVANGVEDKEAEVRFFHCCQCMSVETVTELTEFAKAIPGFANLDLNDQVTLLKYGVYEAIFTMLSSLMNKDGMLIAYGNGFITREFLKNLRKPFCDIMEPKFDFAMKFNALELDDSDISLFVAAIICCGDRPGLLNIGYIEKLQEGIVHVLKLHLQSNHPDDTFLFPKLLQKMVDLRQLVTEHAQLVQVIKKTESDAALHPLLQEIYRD

hPPARγ = molecular target: T5, hPPARγ (Homo sapiens, UniProt P37231); test: PPAR receptor transactivation assay, human PPARγ; assay type: cell-based
T5 construct: expressed in transfected cells; host or cells: Jump-In GripTite HEK293
T5 sequence (P37231 238-503 limits assumed): T1 sequence (P37238 238-503 limits assumed) with N93S, I98V, N146S, V226L, H245Q
Procedure: Compound 1 was tested on all three human PPAR subtypes (hPPAR): hPPARα, hPPARγ, and hPPARδ. All assays were repeated at least three times for each subtype.
The genes of interest were synthesized and cloned into an appropriate Jump-In™ retargeting vector following the User Guide of the Jump-In™ T-REx™ HEK293 Retargeting Kit (ThermoFisher Catalog No A15008). For example, the vector will be used to transfect and retarget the Jump-In™ HEK293 GripTite™ parental cell line. Stable pools will be antibiotic-selected for about 21 days and tested for target gene expression by functional assay.
Jump-In™ GripTite™ HEK293 parental cells were plated at 60-80% confluency in a T-75 flask in growth medium without antibiotics and transfected with a 1:1 ratio of expression construct and R4 integrase expression construct (20 μg DNA total) using Lipofectamine® LTX (50 μL) and PLUS™ Reagent (20 μL). Following a 48 hours incubation, cells were selected with 600 μg/mL Geneticin® and 10 μg/mL Blasticidin for ˜21 days in growth medium.
Jump-In™ GripTite™ HEK293 rPPAR Alpha, Delta or Gamma UAS-bla-Gal4 cell pools were plated in a 384-well plate format (20,000 cells per well) in OptiMeM without FBS in replicates (n=4). Cells were allowed to adhere for 8 hours before addition of Compound 1 (1 mM top concentration, 3-fold dilutions, 10-point titration). After 16 hours, the cells were loaded with LiveBLAzer®, a fluorescent BLA substrate that gives a blue/green readout of expressing/non-expressing cells, respectively. The blue/green readout was measured on a fluorescent plate reader (Tecan Safire II).

[2] = test system: primary mitochondrial myopathy patients; test: clinical trial for primary mitochondrial myopathy (PMM); assay type: in vivo, human
[3] = PMM patients, 100 mg once daily for 12 weeks

EC50 (PPARγ): > 10000 nM
hRXR activity [1]: did not show any
activity on the nuclear receptor LXRβ (LXRβ): did not show any
activity on the nuclear receptor LXRα (LXRα): did not show any
EC50 (PPARα): > 10000 nM
EC50 (hPPARγ; Human PPARγ): > 10000 nM
activity on PPARγ in transactivation assays (hPPARγ; in some cases): negligible activity
agonist type at PPARγ (hPPARγ; in some cases): partial agonist
Structure (SMILES): Cc1cc(OC/C=C(/c2ccc(F)cc2)c2ccc(C#CCN3CCOCC3)cc2)ccc1OCC(=O)O [Compound 1, (E)-[4-[3-(4-Fluorophenyl)-3-[4-[3-(morpholin-4-yl)propynyl]phenyl]allyloxy]-2-methyl-phenoxy]acetic acid]
fatty acid oxidation (rat muscle cell lines): dose-dependent increase
Modified Fatigue Impact Scale scores [2, 3]: trends towards increases
brief pain index (BPI) score, mean [2, 3]: decreased
distance walked during a 12-minute walk test [2, 3]: increase the distance walked; also recorded: Improvements
peak VO2 [2, 3]: trends towards increases
tolerability ([2]; PMM subjects that participated in the study): well tolerated
